Source: patent publication US20090074815A1, “Immunomodulator Compounds as Vaccine Enhancers” (SCICLONE PHARMACEUTICALS, INC., priority 2005, published 2009)
Like-named read-outs stand apart in the source and are kept apart here.

Test system: IL-2 production by OvA-stimulated splenocytes
Assay: OvA-stimulated production of IL-2 by splenocytes of OvA-immunized mice
Conditions: for activity at 0.0001 mg/kg / activity at 0.001 mg/kg / activity at 0.01 mg/kg: Mus musculus, Splenocyte, po
[1] = OvA/Alum, 0.1 μg/kg i/p, OvA 1 μg/ml
[2] = OvA/Alum, 0.1 μg/kg i/p, OvA 10 μg/ml
[3] = OvA/Alum, 0.1 μg/kg i/p, OvA 25 μg/ml
[4] = OvA/Alum, 0.1 μg/kg i/p, OvA 100 μg/ml
[5] = OvA/Alum, 1.0 μg/kg i/p, OvA 1 μg/ml
[6] = OvA/Alum, 1.0 μg/kg i/p, OvA 10 μg/ml
[7] = OvA/Alum, 1.0 μg/kg i/p, OvA 25 μg/ml
[8] = OvA/Alum, 1.0 μg/kg i/p, OvA 100 μg/ml

Protocol: The OvA was administered subcutaneously to the crest in a volume of 200 μl. Mice were immunized on day 1 with OvA in complete Freund's adjuvant (CFA; Sigma) and on day 15 with the antigen in incomplete Freund's adjuvant (IFA; Sigma). The immune response was analyzed on day 29. Mice were also immunized with 10 μg/mouse of OvA using Alum as an adjuvant.
Thymuses and spleens from mice of each treatment group were pooled, and then minced with scissors. The minced tissues were suspended in sterile PBS to form cell suspensions, filtered through a double gauze layer and centrifuged. Cells were washed twice with PBS, re-suspended in RPMI-1640 (Sigma) with 2.0 mM of L-glutamine, 50 μM of mercaptoethanol, and 10 μg/ml of gentamycin (complete medium); and cell counts were made. (The splenocyte suspension was washed with a 0.86% solution of NH4Cl to pre-lyse erthrocytes.)
Assessment of Mitogen- and Antigen-Induced Production of Cytokines: Thymic cells (1×10^6/well) in complete medium with 2% FCS were stimulated with ConA (0, 1, and 2 μg/ml). Splenocytes (1×10^6/well) in complete medium with 5% FCS were stimulated with ConA (0, 1, and 5 μg/ml) and with OvA (0-100 μg/ml). […] Supernatants from OvA-stimulated cultures were collected after 72 hours. Supernatants from both cultures were frozen, and kept at 20° C. Concentrations of IL-2, IL-4, IL-10, IL-12R40 and IFNγ in the supernatants were determined by solid-phase EIA with EIA Expansion Kits, available from BD Biosciences (formerly Pharmingen), in accordance with the manufacturer's instructions.

## N[C@H](CCC(=O)N[C@@H](Cc1c[nH]c2ccccc12)C(=O)O)C(=O)O [SCV-07, γ-D-glutamyl-L-tryptophan]
read-out: Production of IL-2 by splenocytes, % (% of control), OvA/Alum, 0.1 μg/kg per os, OvA 0 μg/ml
  activity at 0.0001 mg/kg: 100%
read-out: Production of IL-2 by splenocytes, % (% of control), OvA/Alum, 0.1 μg/kg per os, OvA 1 μg/ml
  activity at 0.0001 mg/kg: 94.3%
read-out: Production of IL-2 by splenocytes, % (% of control), OvA/Alum, 0.1 μg/kg per os, OvA 10 μg/ml
  activity at 0.0001 mg/kg: 72%
read-out: Production of IL-2 by splenocytes, % (% of control), OvA/Alum, 0.1 μg/kg per os, OvA 25 μg/ml
  activity at 0.0001 mg/kg: 148%
read-out: Production of IL-2 by splenocytes, % (% of control), OvA/Alum, 0.1 μg/kg per os, OvA 100 μg/ml
  activity at 0.0001 mg/kg: 52.5%
read-out: Production of IL-2 by splenocytes, % (% of control), OvA/Alum, 1.0 μg/kg per os, OvA 0 μg/ml
  activity at 0.001 mg/kg: 100%
read-out: Production of IL-2 by splenocytes, % (% of control), OvA/Alum, 1.0 μg/kg per os, OvA 1 μg/ml
  activity at 0.001 mg/kg: 57.7%
read-out: Production of IL-2 by splenocytes, % (% of control), OvA/Alum, 1.0 μg/kg per os, OvA 10 μg/ml
  activity at 0.001 mg/kg: 113%
read-out: Production of IL-2 by splenocytes, % (% of control), OvA/Alum, 1.0 μg/kg per os, OvA 25 μg/ml
  activity at 0.001 mg/kg: 75.4%
read-out: Production of IL-2 by splenocytes, % (% of control), OvA/Alum, 1.0 μg/kg per os, OvA 100 μg/ml
  activity at 0.001 mg/kg: 74.7%
read-out: Production of IL-2 by splenocytes, % (% of control), OvA/Alum, 10.0 μg/kg per os, OvA 0 μg/ml
  activity at 0.01 mg/kg: 100%
read-out: Production of IL-2 by splenocytes, % (% of control), OvA/Alum, 10.0 μg/kg per os, OvA 1 μg/ml
  activity at 0.01 mg/kg: 191%
read-out: Production of IL-2 by splenocytes, % (% of control), OvA/Alum, 10.0 μg/kg per os, OvA 10 μg/ml
  activity at 0.01 mg/kg: 87.2%
read-out: Production of IL-2 by splenocytes, % (% of control), OvA/Alum, 10.0 μg/kg per os, OvA 25 μg/ml
  activity at 0.01 mg/kg: 75.6%
read-out: Production of IL-2 by splenocytes, % (% of control), OvA/Alum, 10.0 μg/kg per os, OvA 100 μg/ml
  activity at 0.01 mg/kg: 104%
read-out: Production of IL-2 by splenocytes, % (% of control), OvA/FA, 0.1 μg/kg per os, OvA 0 μg/ml
  activity at 0.0001 mg/kg: 100%
read-out: Production of IL-2 by splenocytes, % (% of control), OvA/FA, 0.1 μg/kg per os, OvA 1 μg/ml
  activity at 0.0001 mg/kg: 32.4%
read-out: Production of IL-2 by splenocytes, % (% of control), OvA/FA, 0.1 μg/kg per os, OvA 10 μg/ml
  activity at 0.0001 mg/kg: 43.9%
read-out: Production of IL-2 by splenocytes, % (% of control), OvA/FA, 0.1 μg/kg per os, OvA 25 μg/ml
  activity at 0.0001 mg/kg: 119%
read-out: Production of IL-2 by splenocytes, % (% of control), OvA/FA, 0.1 μg/kg per os, OvA 100 μg/ml
  activity at 0.0001 mg/kg: 44.8%
read-out: Production of IL-2 by splenocytes, % (% of control), OvA/FA, 1.0 μg/kg per os, OvA 0 μg/ml
  activity at 0.001 mg/kg: 100%
read-out: Production of IL-2 by splenocytes, % (% of control), OvA/FA, 1.0 μg/kg per os, OvA 1 μg/ml
  activity at 0.001 mg/kg: 67.6%
read-out: Production of IL-2 by splenocytes, % (% of control), OvA/FA, 1.0 μg/kg per os, OvA 10 μg/ml
  activity at 0.001 mg/kg: 248%
read-out: Production of IL-2 by splenocytes, % (% of control), OvA/FA, 1.0 μg/kg per os, OvA 25 μg/ml
  activity at 0.001 mg/kg: 125%
read-out: Production of IL-2 by splenocytes, % (% of control), OvA/FA, 1.0 μg/kg per os, OvA 100 μg/ml
  activity at 0.001 mg/kg: 231%
read-out: Production of IL-2 by splenocytes, % (% of control), OvA/FA, 10.0 μg/kg per os, OvA 0 μg/ml
  activity at 0.01 mg/kg: 100%
read-out: Production of IL-2 by splenocytes, % (% of control), OvA/FA, 10.0 μg/kg per os, OvA 1 μg/ml
  activity at 0.01 mg/kg: 49.2%
read-out: Production of IL-2 by splenocytes, % (% of control), OvA/FA, 10.0 μg/kg per os, OvA 10 μg/ml
  activity at 0.01 mg/kg: 187%
read-out: Production of IL-2 by splenocytes, % (% of control), OvA/FA, 10.0 μg/kg per os, OvA 25 μg/ml
  activity at 0.01 mg/kg: 176%
read-out: Production of IL-2 by splenocytes, % (% of control), OvA/FA, 10.0 μg/kg per os, OvA 100 μg/ml
  activity at 0.01 mg/kg: 293%
OvA/Alum, 0.1 μg/kg i/p, OvA 0 μg/ml
  Production of IL-2 by splenocytes: 163.0 pg/mL
[1]
  Production of IL-2 by splenocytes: 190.3 pg/mL
  Production of IL-2 by splenocytes, % (% of control): 116.7%
[2]
  Production of IL-2 by splenocytes: 87.5 pg/mL
  Production of IL-2 by splenocytes, % (% of control): 53.7%
[3]
  Production of IL-2 by splenocytes: 83.5 pg/mL
  Production of IL-2 by splenocytes, % (% of control): 51.2%
[4]
  Production of IL-2 by splenocytes: 84.8 pg/mL
  Production of IL-2 by splenocytes, % (% of control): 52.0%
OvA/Alum, 0.1 μg/kg per os, OvA 0 μg/ml
  Production of IL-2 by splenocytes: 172.9 pg/mL
OvA/Alum, 0.1 μg/kg per os, OvA 1 μg/ml
  Production of IL-2 by splenocytes: 163.0 pg/mL
OvA/Alum, 0.1 μg/kg per os, OvA 10 μg/ml
  Production of IL-2 by splenocytes: 124.5 pg/mL
OvA/Alum, 0.1 μg/kg per os, OvA 25 μg/ml
  Production of IL-2 by splenocytes: 255.5 pg/mL
OvA/Alum, 0.1 μg/kg per os, OvA 100 μg/ml
  Production of IL-2 by splenocytes: 90.8 pg/mL
OvA/Alum, 1.0 μg/kg i/p, OvA 0 μg/ml
  Production of IL-2 by splenocytes: 113.4 pg/mL
[5]
  Production of IL-2 by splenocytes: 173.7 pg/mL
  Production of IL-2 by splenocytes, % (% of control): 153.2%
[6]
  Production of IL-2 by splenocytes: 167.9 pg/mL
  Production of IL-2 by splenocytes, % (% of control): 148.1%
[7]
  Production of IL-2 by splenocytes: 353.8 pg/mL
  Production of IL-2 by splenocytes, % (% of control): 312.0%
[8]
  Production of IL-2 by splenocytes: 205.8 pg/mL
  Production of IL-2 by splenocytes, % (% of control): 181.5%
OvA/Alum, 1.0 μg/kg per os, OvA 0 μg/ml
  Production of IL-2 by splenocytes: 160.9 pg/mL
OvA/Alum, 1.0 μg/kg per os, OvA 1 μg/ml
  Production of IL-2 by splenocytes: 92.8 pg/mL
OvA/Alum, 1.0 μg/kg per os, OvA 10 μg/ml
  Production of IL-2 by splenocytes: 181.9 pg/mL
OvA/Alum, 1.0 μg/kg per os, OvA 25 μg/ml
  Production of IL-2 by splenocytes: 121.3 pg/mL
OvA/Alum, 1.0 μg/kg per os, OvA 100 μg/ml
  Production of IL-2 by splenocytes: 120.2 pg/mL
OvA/Alum, 10.0 μg/kg per os, OvA 0 μg/ml
  Production of IL-2 by splenocytes: 289.4 pg/mL
OvA/Alum, 10.0 μg/kg per os, OvA 1 μg/ml
  Production of IL-2 by splenocytes: 551.9 pg/mL
OvA/Alum, 10.0 μg/kg per os, OvA 10 μg/ml
  Production of IL-2 by splenocytes: 252.5 pg/mL
OvA/Alum, 10.0 μg/kg per os, OvA 25 μg/ml
  Production of IL-2 by splenocytes: 218.7 pg/mL
OvA/Alum, 10.0 μg/kg per os, OvA 100 μg/ml
  Production of IL-2 by splenocytes: 300.8 pg/mL
OvA/FA, 0.1 μg/kg i/p, OvA 0 μg/ml
  Production of IL-2 by splenocytes: 78.4 pg/mL
